Assay results reported in a melting point compilation (Tetko et al.; mined from patent text by program, amines drawn as free bases though some values may be those of a salt).

SMILES | melting point [°C]
CCc1cc(Cl)n2nccc2n1 | 66 to 68
O=C1c2ccccc2C(=O)c2c(NCCc3ccc(O)cc3)ccc(NCCc3ccc(O)cc3)c21 | 240 to 242
Cc1cc(C(=O)N2Cc3cccn3Cc3ccccc32)ccc1C1=CCCCC1(C)C | 131
CC(C)(C)C(NC(=O)c1ccc(Cl)cc1)NC(=S)Nc1cccnc1 (stereo unspecified) | 164 to 167
CNC(=O)C(CCN(C)C)(c1ccccc1)C(O)c1ccccc1 (stereo unspecified) | 107 to 115
CNc1ncnc2c1c(=O)n(C)c(=O)n2C | 178 to 179
CC(C)(C)c1ccc(C(=O)Nc2cn3cc(-n4cccc4)ccc3n2)cc1 | 274 to 275
COc1ccc(C=Cc2nc3c(c(=O)n(C)c(=O)n3C)n2C)cc1 | > 320
COc1cc(C)c(S(=O)(=O)NC(=S)Nc2nc(-c3ccc(C4CCCCC4)cc3)c(C)s2)c(C)c1 | 177 to 178
CN1CCN(NC(=O)Nc2cccc3c2C(=O)c2c-3n[nH]c2-c2ccc(N3CCN(C)CC3)cc2)CC1 | 293
c1ccc(CSc2nnc(-c3ccc4c(c3)CCO4)o2)cc1 | 148 to 149
Cn1c(C(F)(F)F)ccc(-c2ccc(Cl)cc2F)c1=O | 103 to 104
O=S(Cc1cn(C23CC4CC(CC(C4)C2)C3)nn1)c1cc(Cl)ccc1Cl (stereo unspecified) | 125 to 128
Cc1noc(C)c1Cn1cc(N2C(=O)CNC2=O)cn1 | 169 to 171
CN(C)c1c(F)c(F)c(F)c2c1c(=O)c(C(=O)O)cn2C1CC1 | 160 to 163
CC(C)(C)C1=NN(c2ccc(C(=O)O)cc2)C(c2ccc(Cl)c(Cl)c2)C1 (stereo unspecified) | 217
Cc1cccc2c1nc(-c1c(F)cccc1F)n2S(=O)(=O)c1ccccc1 | 134 to 135
CC(C)CN(Cc1nc(-c2ncn3c2[C@@H]2CCN2C(=O)c2c(Cl)cccc2-3)no1)CC(C)C | 125 to 140
COc1cc(Cl)cc(Cl)c1C(=O)NC(C)(C)CO | 131 to 132
C[Si](C)(C)C#Cc1ccc2c(C(=O)Nc3cccc(C(F)(F)F)c3)cccc2c1 | 134 to 136
COc1ccc(-c2cn3ccc4ccccc4c3n2)cc1 | 177 to 179
C=CCN(CC=C)CC(=O)N1c2ccccc2N(CCCC)C(=O)c2cnc(-c3ccccc3)nc21 | 137 to 138
C=CCc1c(O)c(C(=O)OC)cc(Cl)c1NC(C)=O | 189 to 190

SMILES | melting point [°C]
CSc1ccc(-c2nc3[nH]nc(N)c3c(=O)n2-c2ccc(C)c(C)c2)cc1 | 263 to 266
CC(C)CC(=O)N[C@H]1N=C(c2ccccc2)c2ccccc2N(C)C1=O | 83 to 102
Cc1nc(C(C)O)c[nH]1 (stereo unspecified) | 107 to 111
COc1cc(OC)cc(-c2nsnc(Cl)c2=O)c1 | 121 to 124
CP(=O)(CCC(=O)O)CCC(=O)O | 172 to 174
CCCc1cnc2c(c1)C(=O)N1C2=NC(=O)C1(C)C(C)C (stereo unspecified) | 116
COC(=O)c1cc(N)c(NC(C)=O)c(Br)c1O | 217 to 219
c1cc2c3c(c1)[C@H]1CCC[C@H]1N3CCNCC2 (relative stereo) | > 130
Nc1cc(I)ccc1Nc1cccc(-c2cncnc2)c1 | 166 to 169
O=Cc1cccc(-c2nc3sccn3c2-c2ccnc(N[C@@H]3CCCN(S(=O)(=O)c4ccc(Cl)cc4)C3)n2)c1 | 124 to 126
CON=C(C)c1cc(C#N)c(=O)[nH]c1C | 275 to 285
OC1(c2ccncc2)c2ccccc2CCc2ccccc21 | 174 to 177
COC1CCN(C2CCN(c3ccc(NC(=O)c4cnn(-c5ccc(Cl)cc5)c4C)cc3C#N)CC2)CC1 | 245
COc1ccc(Nc2ccnc(NCCO)c2)cc1 | 164 to 165
Cn1cccc1C(N)=S | 87 to 88
Cc1nnc(CCl)n1-c1ccc(Cl)cc1C(=O)c1ccccc1Cl | 127 to 130
Cc1ccc(N=C2NCCN2)c(Cl)c1Cl | 158 to 162
NC1(CC(=O)O)CCCCC1 | 200 to 204
Cc1nc(C(F)(F)F)ccc1C(Cl)=C1C(=O)C(C)(C)C(=O)C(C)(C)C1=O | 92.5 to 93
NNS(=O)(=O)c1cccc2cccnc12 | 135 to 137
CCCCCCCCCCCCC1(Cn2ccnc2)SCC(CCCC)S1 (stereo unspecified) | 156 to 161
CC1=NN=C(c2cc3ccccc3s2)c2cc3oc(=O)[nH]c3cc2C1 | 338 to 340

Second part, the compound after the results:

melting point [°C] | SMILES
94 to 96 | O[C@@H]1C=C[C@H](COC(c2ccccc2)(c2ccccc2)c2ccccc2)C1 (relative stereo)
163 to 164 | O=C(O)C(Cc1ccccc1)c1ccc([N+](=O)[O-])cc1 (stereo unspecified)
158 to 159 | OC1CSC(Oc2cc(-c3ccc(F)nc3)cnc2F)C(O)C1O (stereo unspecified)
99 to 100 | OCCC12CC(c3ccccc31)c1ccccc12
214 to 216 | Nc1nccc(C=Cc2ccc([N+](=O)[O-])cc2)n1
109 to 111 | C=CCc1c(OC)cc(OC)cc1C(=O)O
132 | C=C(Cc1c(Cl)cccc1Cl)C(=O)O
96 to 99 | CCN(CC)CCNC(=O)c1cc(Cl)c(N)cc1OC1CCCCC1=O (stereo unspecified)
233 to 235 | O=C1COc2c(cc(Cl)cc2C(=O)NC2CCN(CCc3ccccc3)CC2)N1
93 to 94 | O=[N+]([O-])c1cnccc1Oc1ccc(Cl)cc1
110 to 112 | Nc1ccc(Nc2ccccc2[N+](=O)[O-])cc1
99 to 120 | CCCC[C@H](NC(=O)[C@H](C)Nc1nc2ccccc2s1)C(=O)OC
85 to 86 | COC(=O)[C@@H](Cc1ccccc1)NC(=O)OCc1cc2cc(-c3ccccc3)ccc2o1
146 to 148 | CCOC(=O)C(=CNc1ncnc2cc(C)c(C)cc12)C(=O)OCC
114 to 115 | CCOC(=O)C1C(=O)N(Cc2ccc(Br)cc2F)C(=O)c2cccn21 (stereo unspecified)
248 | CCOc1ccc2c(c1)n(C13CC4CC(CC(C4)C1)C3)c(=O)n2S(=O)(=O)c1ccc(N)cc1OC
168 | O=C(O)Cc1c(Sc2ccccc2)c2cc(F)ccc2n1Cc1ccc(Cl)cc1
234 to 236 | CC(=O)NC1=C(C#N)C(c2cccc([N+](=O)[O-])c2)c2ccc3ccccc3c2O1 (stereo unspecified)
140 to 141 | O=C(N[C@H]1CCCNC1=O)c1ccc(F)cc1F

melting point [°C] | SMILES
> 250 | COC(=O)C(NC(=O)c1ccccc1)c1ccc(-c2ccc(S(=O)(=O)O)cc2)cc1 (stereo unspecified)
124 to 125 | CCOc1cccc(C2NC(C(=O)O)CS2)c1OCCO[N+](=O)[O-] (stereo unspecified)
134 to 135 | CCC(C)c1nn(-c2ccc(C(F)(F)F)cn2)cc1CCCOc1c(C)cccc1CC(=O)O (stereo unspecified)
218 | O=C(O)c1ccc(OCCCn2ccnc2)cc1
217 to 220 | CC(C)(C)c1cc(-c2ccc(NC(=O)[C@H]3CCCC[C@H]3C(=O)O)cc2)cc(C(C)(C)C)c1O (relative stereo)
187 to 188 | O=[N+]([O-])c1ccc(C=[N+]([O-])c2cccc(CO)c2)o1
205 to 207 | CC(C)c1cc(OC2CN(C(c3ccccc3)c3ccccc3)C2)cc2c1C(=O)N(COC(=O)c1c(Cl)cccc1Cl)S2(=O)=O
106 to 108 | CCOC(=O)CC(NC(=O)c1ccc(Cl)cc1)C(=O)c1ccsc1 (stereo unspecified)
182 to 183 | O=C(O)CNc1ccc(Cl)cc1C(=O)O
220 to 222 | Cc1nc2cccc(OC3CCCCC3)c2c(N)c1C(=O)O
76 to 78 | CCN(CC)CCNC(=O)c1cnc2ccc(I)cc2c1Cl
273 to 275 | CNC(=O)c1ccc(-c2cnc3[nH]c(=O)n(CC4CCCCC4)c3n2)cc1
128 to 131 | CC(C)(C)OC(=O)N[C@H]1C(=O)N[C@H]1CO (relative stereo)
186 to 187 | CC(=O)OCS(=O)(=O)C1=CCC2C3CCC4=CC(=O)C=CC4(C)C3(F)C(O)CC12C (stereo unspecified)
180 to 184 | COCCC(O)c1cc2c(=O)n(NS(C)(=O)=O)c(=O)[nH]c2cc1C(F)(F)F (stereo unspecified)
160 to 162 | CCC1CCC(=O)C=C1c1ccc(OC(CC)C(=O)O)c(Cl)c1Cl (stereo unspecified)
74 | COCCN1CCc2ccc(Nc3ncc(Cl)c(N[C@@H]4CCC[C@H]4NS(C)(=O)=O)n3)cc2CC1 (relative stereo)
144 to 145 | CCn1nnnc1C(C=O)=C(c1ccc(F)cc1)c1ccc(F)cc1
93 to 94 | O=C(O)c1cc(C(F)(F)F)ccc1Cl

melting point [°C] | SMILES
205 to 207 | COc1ccc2c(c1OCc1ccccc1)CC(C(=O)O)N(C(=O)Cc1c(Cl)cccc1Cl)C2 (racemic)
180 to 182 | NC(=O)C1Cc2c([nH]c3ccccc23)C(c2ccccc2)N1C(=O)CCl (stereo unspecified)
195 to 198 | COc1ccc(CN2CC(c3ccccc3)=C(O)C2=O)cc1
106 to 108 | COc1cc2c(c(C)c1OC)CC(C)CC2=O (stereo unspecified)
236 to 240 | CC(C)C(c1cc(Cl)ccc1N1CCCCC1)C(C(N)=O)c1ccc(C(=O)O)cc1 (stereo unspecified)
75 to 77 | CCOC(=O)c1ccc(NCCc2ccc(Cl)cc2)cc1
104 | O=C1CC(O)CN1C(=O)Nc1ccccc1 (stereo unspecified)
162 to 169 | Cc1ccc(S(=O)(=O)N2CCCC2C(=O)OC2c3cc(C#N)ccc3OC(C)(C)C2Br)cc1 (stereo unspecified)
231 to 234 | O=C(O)c1ccc(NC(=O)[C@H](CO)NS(=O)(=O)c2ccc(Cl)cc2)cc1
74 to 76 | N#CCOC(=O)c1cc2ccccc2o1
68 to 70 | CC(C(=O)O)c1ccc(Oc2ccc(F)cc2)c(Cl)c1 (stereo unspecified)
143 to 144 | CCCCS(=O)(=O)Oc1cn(C)c2ccccc2c1=O
214 to 216 | Cc1nc2c(N)nc3cc(OCCC4CCN(C(=O)NC5CCCCC5)CC4)ccc3c2n1CC(C)C
107 to 108 | CCCN(CCC)C(=O)COc1nc(-c2ccccc2)nc(C)c1Br
142 to 143 | Cc1c(CNCC(C)C)n(C)c2ccc(NC(=O)c3ccc(OCC4CC4)cc3)cc12
285 to 286 | Cc1cccc(C)c1COc1cc(C(=O)O)cc2c1nc(C)n2C
222 | CC(=O)c1c2sc3ccccc3nc-2ccc1=O
114 | O=C1[C@H](CC[C@H](O)c2ccc(F)cc2)[C@@H](c2ccc(Br)cc2OCc2ccccc2)N1c1ccccc1
